Earlier results, collected in patent US20150104511A1, “Pharmaceutical Antiretroviral Combinations Comprising Lamivudine, Festinavir and Nevirapine” (Cipla Limited, priority 2012, published 2015).

Experiments:
[1] = target: RT (Reverse Transcriptase) (Human immunodeficiency virus type 1 group M subtype B, UniProt P04585); conditions: compared to d4T-triphosphate
mtDNA pol γ = target: T1, mtDNA pol γ (Homo sapiens, UniProt P54098); conditions: compared to d4T-triphosphate
T1 sequence (P54098 1-1239): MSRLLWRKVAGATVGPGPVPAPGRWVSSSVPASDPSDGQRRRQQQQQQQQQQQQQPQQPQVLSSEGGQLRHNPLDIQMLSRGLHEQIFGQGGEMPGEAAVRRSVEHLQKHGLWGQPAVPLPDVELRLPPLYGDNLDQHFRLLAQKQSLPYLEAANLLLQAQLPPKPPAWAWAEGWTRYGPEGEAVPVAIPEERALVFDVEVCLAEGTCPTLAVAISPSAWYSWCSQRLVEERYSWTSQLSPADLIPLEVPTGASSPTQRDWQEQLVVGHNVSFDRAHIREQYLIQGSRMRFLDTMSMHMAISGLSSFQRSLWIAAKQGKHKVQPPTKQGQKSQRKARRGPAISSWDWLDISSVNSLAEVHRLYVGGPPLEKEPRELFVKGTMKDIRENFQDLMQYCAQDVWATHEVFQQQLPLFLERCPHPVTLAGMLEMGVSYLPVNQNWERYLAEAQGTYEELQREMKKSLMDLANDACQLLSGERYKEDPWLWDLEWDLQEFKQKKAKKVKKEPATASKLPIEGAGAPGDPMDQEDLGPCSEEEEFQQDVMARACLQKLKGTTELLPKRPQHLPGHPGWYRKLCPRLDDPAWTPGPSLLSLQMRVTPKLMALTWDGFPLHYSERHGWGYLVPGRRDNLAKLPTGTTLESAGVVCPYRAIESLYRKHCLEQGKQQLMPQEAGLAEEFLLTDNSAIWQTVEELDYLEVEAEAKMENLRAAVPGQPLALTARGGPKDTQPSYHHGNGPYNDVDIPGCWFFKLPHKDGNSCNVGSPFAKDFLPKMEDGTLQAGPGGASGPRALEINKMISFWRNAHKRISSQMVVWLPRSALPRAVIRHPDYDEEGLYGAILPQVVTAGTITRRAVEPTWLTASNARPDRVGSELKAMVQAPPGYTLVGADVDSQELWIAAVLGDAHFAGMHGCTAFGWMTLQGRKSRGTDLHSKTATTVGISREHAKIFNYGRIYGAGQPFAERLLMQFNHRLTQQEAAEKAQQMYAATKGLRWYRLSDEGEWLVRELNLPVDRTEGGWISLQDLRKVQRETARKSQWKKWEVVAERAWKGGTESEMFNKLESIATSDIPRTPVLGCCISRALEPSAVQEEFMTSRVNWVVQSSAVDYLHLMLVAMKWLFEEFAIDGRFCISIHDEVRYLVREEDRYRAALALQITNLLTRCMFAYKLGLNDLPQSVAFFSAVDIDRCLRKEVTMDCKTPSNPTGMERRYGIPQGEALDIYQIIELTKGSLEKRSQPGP

Structure (SMILES) | increase in affinity to RT (Reverse Transcriptase) [1] | interactions with mtDNA pol γ (mtDNA pol γ) | persistence of anti-HIV activity after drug removal (HIV; compared with the other thymidine analogs) | improved potency as compared to stavudine (d4T) (HIV; relative to stavudine (d4T)) | in vitro toxicity, including effects on mtDNA (mtDNA; as compared to stavudine (d4T)) | cellular and mitochondrial toxicity (mtDNA; compared with stavudine (d4T))
C#C[C@@]1(COP(=O)(O)OP(=O)(O)OP(=O)(O)O)C=C[C@H](n2cc(C)c(=O)[nH]c2=O)O1 [4′-Ed4T triphosphate] | approximately 5 fold | reduces the interactions with mtDNA pol γ |  |  |  | 
C#C[C@@]1(CO)C=C[C@H](n2cc(C)c(=O)[nH]c2=O)O1 [Festinavir, 2′,3′-didehydro-3′-deoxy-4′-ethynylthymidine] |  |  | more persistent anti-HIV activity after drug removal | 5-10 fold | reduced in vitro toxicity | lower cellular and mitochondrial toxicity
